Where two headings read alike, the source gives them in different places.
System: primary rat mixed cortical cells
Assay: In vitro myelination assay (MBP positive myelin strands, fold myelin pixels above background)
Type: cell-based
Details: Rattus norvegicus; for fold induction at 1 µM: 1.0 μM compound; for fold induction at 10 µM: 10.0 μM compound
How it was run: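 Compounds at 1.0 and 10.0 μM were incubated 14 days with dissociated P1 rat cortical cells, which were then fixed and immunostained for MBP. Myelination was scored as fold MBP myelin pixels per well over the no-compound baseline.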

[1] = relative to baseline of no added compound, read-out: Fold myelin pixels above background
[2] = relative to baseline of no added compound, read-out: Fold myelin pixels above background, 1.0 μM
[3] = relative to baseline of no added compound, read-out: Fold myelin pixels above background, 10.0 μM
[4] = read-out: Fold myelin pixels above background relative to baseline of no added compound

Row | Compound | fold induction at 1 µM [1] | fold induction at 10 µM [1] | fold induction at 1 µM [2] | fold induction at 10 µM [3] | also measured
1 | CCNC(=O)N1CCN(c2cc(C(F)(F)F)cc(Nc3ncn(-c4cc(F)cc(F)c4)n3)n2)CC1 [Compound 554, 4-[6-[[1-(3,5-difluorophenyl)-1,2,4-triazol-3-yl]amino]-4-(trifluoromethyl)-2-pyridyl]-N-ethyl-piperazine-1-carboxamide] | 10 to 100 | 10 to 100 | – | – | –
2 | Cc1cc(Nc2ncn(-c3cc(F)cc(F)c3)n2)cc(N2CCN(C)C(C)C2)c1 (stereo not drawn) [Compound 119, 1-(3,5-difluorophenyl)-N-[3-(3,4-dimethylpiperazin-1-yl)-5-methyl-phenyl]-1,2,4-triazol-3-amine] | – | – | 100 to 1000 | 10 to 100 | –
3 | Cc1cc(Nc2ncn(-c3cc(F)cc(F)c3)n2)cc(N2CCC(C(=O)N3CCOCC3)CC2)c1 [Compound 589, [1-[3-[[1-(3,5-difluorophenyl)-1,2,4-triazol-3-yl]amino]-5-methyl-phenyl]-4-piperidyl]-morpholino-methanone] | 10 to 100 | ≤ 1 | – | – | –
4 | COC1CCN(c2cc(C)cc(Nc3ncn(-c4cc(F)cc(F)c4)n3)c2)C1 (stereo not drawn) [Compound 164, 1-(3,5-difluorophenyl)-N-[3-(3-methoxypyrrolidin-1-yl)-5-methyl-phenyl]-1,2,4-triazol-3-amine] | – | – | 1 to 10 | 1 to 10 | –
5 | Cc1cc(Nc2ncn(-c3ccccc3)n2)cc(N2CCN(C3COC3)CC2)c1 [Compound 118, N-[3-methyl-5-[4-(oxetan-3-yl)piperazin-1-yl]phenyl]-1-phenyl-1,2,4-triazol-3-amine] | – | – | 100 to 1000 | 10 to 100 | –
6 | Cc1cc(Nc2ncn(-c3ccnc(F)c3)n2)cc(NC2CCN(C3COC3)C2)c1 (stereo not drawn) [Compound 249, N3-[1-(2-fluoro-4-pyridyl)-1,2,4-triazol-3-yl]-5-methyl-N1-[1-(oxetan-3-yl)pyrrolidin-3-yl]benzene-1,3-diamine] | – | – | 10 to 100 | ≤ 1 | –
7 | Cc1cc(Nc2ncn(-c3cc(F)cc(F)c3)n2)cc([C@@H]2CN(C3COC3)CCO2)c1 (single isomer, unassigned) [Compound 751] | 10 to 100 | ≤ 1 | – | – | –
8 | COc1cc(Nc2ncn(-c3cccc(C(F)(F)F)c3)n2)nc(N2CCN(C3COC3)CC2)c1 [Compound 610, 4-methoxy-6-[4-(oxetan-3-yl)piperazin-1-yl]-N-[1-[3-(trifluoromethyl)phenyl]-1,2,4-triazol-3-yl]pyridin-2-amine] | 1 to 10 | 1 to 10 | – | – | –
9 | CC(=O)N1CCCC(Nc2cc(C)cc(Nc3ncn(-c4ccccc4)n3)c2)C1 (stereo not drawn) [Compound 115, 1-[3-[3-methyl-5-[(1-phenyl-1,2,4-triazol-3-yl)amino]anilino]-1-piperidyl]ethanone] | – | – | 100 to 1000 | 100 to 1000 | –
10 | Fc1cc(F)cc(-n2cnc(Nc3cc(C(F)(F)F)cc(N4CCNCC4)n3)n2)c1 [Compound 556, N-[1-(3,5-difluorophenyl)-1,2,4-triazol-3-yl]-6-piperazin-1-yl-4-(trifluoromethyl)pyridin-2-amine] | 1 to 10 | 1 to 10 | – | – | –
11 | COc1cc(F)cc(-n2cnc(Nc3cc(C)cc(N4CCN(C)CC4)c3)n2)c1 [Compound 395, 1-(3-fluoro-5-methoxy-phenyl)-N-[3-methyl-5-(4-methylpiperazin-1-yl)phenyl]-1,2,4-triazol-3-amine] | 10 to 100 | ≤ 1 | – | – | –
12 | Fc1cc(Nc2ncn(-c3ccc(F)c(F)c3)n2)cc(N2CCN(C3COC3)CC2)c1 [Compound 803, 1-(3,4-difluorophenyl)-N-[3-fluoro-5-[4-(oxetan-3-yl)piperazin-1-yl]phenyl]-1,2,4-triazol-3-amine] | – | – | – | – | fold induction at 1 µM [4]: 10 to 100; fold induction at 10 µM [4]: ≤ 1
13 | Cc1cc(Nc2ncn(-c3cc(F)cc(F)c3)n2)cc(N2CCOC(CN3CCN(C)CC3)C2)c1 (stereo not drawn) [Compound 954, 1-(3,5-difluorophenyl)-N-[3-methyl-5-[2-[(4-methylpiperazin-1-yl)methyl]morpholin-4-yl]phenyl]-1,2,4-triazol-3-amine] | – | – | – | – | fold induction at 1 µM [4]: 1 to 10; fold induction at 10 µM [4]: ≤ 1
14 | Cc1cc(Nc2ncn(-c3cc(F)cc(F)c3)n2)cc(O[C@@H]2CCCN(C3COC3)C2)c1 (single isomer, unassigned) [Compound 748] | 10 to 100 | ≤ 1 | – | – | –
15 | Cc1cc(Nc2ncn(-c3cccc(F)c3)n2)cc(C2CCN(C3COC3)C2)c1 (stereo not drawn) [Compound 382, 1-(3-fluorophenyl)-N-[3-methyl-5-[1-(oxetan-3-yl)pyrrolidin-3-yl]phenyl]-1,2,4-triazol-3-amine] | – | – | 1000 to 10000 | 1 to 10 | –
16 | Cc1cc(Nc2ncn(-c3cc(F)cc(F)c3)n2)cc(C2(C)CN(C)C(=O)O2)c1 (stereo not drawn) [Compound 613, 5-[3-[[1-(3,5-difluorophenyl)-1,2,4-triazol-3-yl]amino]-5-methyl-phenyl]-3,5-dimethyl-oxazolidin-2-one] | 10 to 100 | 1 to 10 | – | – | –
17 | Cc1cc(Nc2ncn(-c3cc(F)cc(F)c3)n2)cc(N2C[C@@H]3C[C@H]2CN3C2CC2)c1 [Compound 78, N-[3-[(1S,4S)-2-cyclopropyl-2,5-diazabicyclo[2.2.1]heptan-5-yl]-5-methyl-phenyl]-1-(3,5-difluorophenyl)-1,2,4-triazol-3-amine] | – | – | 100 to 1000 | ≤ 1 | –
18 | Fc1cc(-n2cnc(Nc3cc(C(F)F)cc(N4CCOCC4)c3)n2)ccn1 [Compound 85, N-[3-(difluoromethyl)-5-morpholino-phenyl]-1-(2-fluoro-4-pyridyl)-1,2,4-triazol-3-amine] | – | – | 100 to 1000 | 100 to 1000 | –
19 | Cc1cc(Nc2ncn(-c3cc(F)cc(F)c3)n2)cc(N2CCC(N3CC(F)(F)C3)CC2)c1 [Compound 745, N-[3-[4-(3,3-difluoroazetidin-1-yl)-1-piperidyl]-5-methyl-phenyl]-1-(3,5-difluorophenyl)-1,2,4-triazol-3-amine] | 10 to 100 | ≤ 1 | – | – | –
20 | CCc1cc(Nc2ncn(-c3cccc(F)c3)n2)cc(N2CCN(C3COC3)CC2)c1 [Compound 468, N-[3-ethyl-5-[4-(oxetan-3-yl)piperazin-1-yl]phenyl]-1-(3-fluorophenyl)-1,2,4-triazol-3-amine] | 100 to 1000 | 1 to 10 | – | – | –
21 | Cc1cc(OCC(=O)N2CCCC2)cc(Nc2ncn(-c3cc(F)cc(F)c3)n2)c1C [Compound 965, 2-[3-[[1-(3,5-difluorophenyl)-1,2,4-triazol-3-yl]amino]-4,5-dimethyl-phenoxy]-1-pyrrolidin-1-yl-ethanone] | – | – | – | – | fold induction at 1 µM [4]: 10 to 100; fold induction at 10 µM [4]: 10 to 100
22 | Cc1cc(Nc2ncn(-c3ccccc3)n2)cc(Nc2ncc(C)o2)c1 [Compound 1049, 5-methyl-N1-(5-methyloxazol-2-yl)-N3-(1-phenyl-1,2,4-triazol-3-yl)benzene-1,3-diamine] | – | – | – | – | fold induction at 1 µM [4]: 1 to 10; fold induction at 10 µM [4]: 10 to 100
23 | CCN1CCN(c2cc(C)cc(Nc3ncn(-c4ccccc4)n3)c2)CC1 [Compound 274, N-[3-(4-ethylpiperazin-1-yl)-5-methyl-phenyl]-1-phenyl-1,2,4-triazol-3-amine] | – | – | 1000 to 10000 | 1 to 10 | –
24 | Fc1ccccc1-n1cnc(Nc2cc(C3CC3)cc(N3CCN(C4COC4)CC3)c2)n1 [Compound 225, N-[3-cyclopropyl-5-[4-(oxetan-3-yl)piperazin-1-yl]phenyl]-1-(2-fluorophenyl)-1,2,4-triazol-3-amine] | – | – | 100 to 1000 | 100 to 1000 | –
25 | Cc1cc(Nc2ncn(-c3cc(F)cc(F)c3)n2)cc(N2CCN(C)C(=O)C2)c1 [Compound 360, 4-[3-[[1-(3,5-difluorophenyl)-1,2,4-triazol-3-yl]amino]-5-methyl-phenyl]-1-methyl-piperazin-2-one] | – | – | 10 to 100 | 10 to 100 | –
26 | Cc1cc(Nc2ncn(-c3cc(F)cc(F)c3)n2)nc(OC2CCCOC2)c1 (stereo not drawn) [Compound 999, N-[1-(3,5-difluorophenyl)-1,2,4-triazol-3-yl]-4-methyl-6-tetrahydropyran-3-yloxy-pyridin-2-amine] | – | – | – | – | fold induction at 1 µM [4]: 1 to 10; fold induction at 10 µM [4]: ≤ 1
27 | COCCNc1cc(F)cc(-n2cnc(Nc3cc(C)cc(N4CC(F)C4)c3)n2)c1 [Compound 766, N-[3-(3-fluoroazetidin-1-yl)-5-methyl-phenyl]-1-[3-fluoro-5-(2-methoxyethylamino)phenyl]-1,2,4-triazol-3-amine] | 1 to 10 | ≤ 1 | – | – | –
28 | Cc1cc(Nc2ncn(-c3cncc(Cl)c3)n2)cc(N2CCN(C)CC2)c1 [Compound 262, 1-(5-chloro-3-pyridyl)-N-[3-methyl-5-(4-methylpiperazin-1-yl)phenyl]-1,2,4-triazol-3-amine] | – | – | 10 to 100 | 100 to 1000 | –
29 | Cc1cc(Nc2ncn(-c3cc(F)cc(F)c3)n2)cc(C2COC2)c1 [Compound 131, 1-(3,5-difluorophenyl)-N-[3-methyl-5-(oxetan-3-yl)phenyl]-1,2,4-triazol-3-amine] | – | – | 10 to 100 | 1000 to 10000 | –
30 | CC(C)c1cc(Nc2ncn(-c3cccc(F)c3)n2)cc(N2CCN(C3COC3)CC2)c1 [Compound 523, 1-(3-fluorophenyl)-N-[3-isopropyl-5-[4-(oxetan-3-yl)piperazin-1-yl]phenyl]-1,2,4-triazol-3-amine] | 100 to 1000 | ≤ 1 | – | – | –

From US10766869B2, “Triazoles for the treatment of demyelinating dieases” (Vertex Pharmaceuticals Incorporated, priority 2015, dated 2020)
